According to patent US20140343085A1, “USE OF ARYL DERIVATIVES FOR CONTROLLING ECTOPARASITES” (Novartis AG, priority 2011, published 2014):

Assays:
[1] = Blood concentration of active enantiomer in dogs, fed vs fasted (HPLC-MSMS, enantioselective column); format: in vivo; conditions: 50 mg/kg
Method: To 12 dogs of mixed breed, the racemic compound 5-[5-(3,4,5-trichloro-phenyl)-5-trifluoromethyl-4,5-dihydro-isoxazol-3-yl]-3-methyl-thiophene-2-carboxylic acid [(2,2,2-trifluoro-ethylcarbamoyl)-methyl]-amide was administered in form of a solution at a dose of 50 mg/kg of animal, and the blood concentration of said aryl isoxazoline compound within the dogs was then monitored up to 6 days following the administration.
4 dogs (Group 1) received a full daily ration of pelleted dry food 15 to 30 minutes before the administration of the aryl isoxazoline compound; The Group 2 dogs received an identical ration of pelleted dry feed 30 minutes after the administration of the active ingredient. To the remaining 4 dogs of Group 3, the aryl isoxazoline compound was administered in fasted condition, and they received the identical ration of pelleted dry food only 5 hours following the uptake of the antiparasiticide.
(§1) Analysis of the blood concentration was performed as follows. A blood sample from the animal was subjected to a precipitation step with organic solvent and subsequently cleaned up on a […] solid phase extraction cartridge. The eluate was evaporated to dryness and reconstituted in mobile phase and analyzed on a HPLC-MSMS using an enantioselective column (amylose-based, brand name “Chiralpak”).

[2] = Blood concentration of active enantiomer in cats, fed vs fasted (HPLC-MSMS, enantioselective column); format: in vivo; conditions: 45 mg, fasted Group 2
Method: as §1
To 4 cats, each 45 mg of the racemic compound 5-[5-(3,4,5-trichloro-phenyl)-5-trifluoromethyl-4,5-dihydro-isoxazol-3-yl]-3-methyl-thiophene-2-carboxylic acid [(2,2,2-trifluoro-ethylcarbamoyl)-methyl]-amide were administered in form of an oral solution, and the blood concentration of said aryl isoxazoline compound within the cats was then monitored according to the method as described in Example 1 up to 24 days following the administration.
2 cats (Group 1) received a full daily ration of commercial wet food 15 to 30 minutes before the administration of the aryl isoxazoline compound; The two Group 2 cats received an identical ration of wet food only 5 hours following the uptake of the aryl isoxazoline.

## Cc1cc(C2=NOC(c3cc(Cl)c(Cl)c(Cl)c3)(C(F)(F)F)C2)sc1C(=O)NCC(=O)NCC(F)(F)F (racemic) [5-[5-(3,4,5-trichloro-phenyl)-5-trifluoromethyl-4,5-dihydro-isoxazol-3-yl]-3-methyl-thiophene-2-carboxylic acid [(2,2,2-trifluoro-ethylcarbamoyl)-methyl]-amide]
[1]; Group 1 (fed 15 to 30 minutes before administration)
  Blood concentration of active ingredient, comparison of groups: highest blood concentration of active ingredient
[1]; Group 2 (fed 30 minutes after administration)
  Blood concentration of active ingredient, sufficiency for ectoparasite control: allowed effective ectoparasite control as well
[1]; Group 3 (fasted, fed 5 hours after)
  Blood concentration of the active enantiomer, sufficiency for ectoparasite control: never reached a level being sufficient for an effective ectoparasite control
[2]
  Level of active ingredient, sufficiency for ectoparasite control: never reached a level of active ingredient sufficient to provide an effective ectoparasite control
